From US20100286285A1, “Pharmaceutical composition comprising oleaginous ointments and vitamin D or its derivatives in the solubilized state” (GALDERMA RESEARCH & DEVELOPMENT, priority 2005, published 2010)

Assay: Maximum solubility of the active agent in various excipients
Assay type: physicochemical

Sol max (in Arlamol E): 1.033 % w/w
Sol max (in Cremophor RH40): 3.989 % w/w
Sol max (in Ethanol 95): >20 % w/w
Sol max (in Eutanol G): 0.322 % w/w
Sol max (in IPP): 0.1654 % w/w
Sol max (in Labrafil M1944CS): 0.936 % w/w
Sol max (in Miglyol 812): 0.3167 % w/w
Sol max (in PEG 400): 6.894 % w/w
Sol max (in Primol 352): 0.0009 % w/w
Sol max (in Propylene glycol): 2.3351 % w/w
Sol max (in Sweet almond oil): 0.0932 % w/w
Sol max (in Transcutol): >20 % w/w
Structure (SMILES): CCCc1cc(C(O)(CC)CC)ccc1-c1cc(OCc2ccc(CO)c(CO)c2)ccc1CC [Active agent, {4-[6-ethyl-4′-(1-ethyl-1-hydroxypropyl)-2′-propylbiphenyl-3-yloxymethyl]-2-hydroxy-methylphenyl}methanol]
